Source: patent US20020062499A1, “Methods for translational repression of gene expression in plants” (priority 2000, published 2002)

Legend:
[1] = system: transgenic corn lines; assay: Field test of MS2 translation repression system transgenic corn lines; assay type: in vivo; conditions: 32 oz/acre Roundup® at the 6-8 leaf stage; transgenic TRS corn lines
Procedure: Field tests are conducted to evaluate the vegetative tolerance and male sterility of transgenic corn lines selected from the greenhouse tests. Lines for the field trial are selected based on previous scores showing good to excellent vegetative tolerance, very high or complete male sterility induced by glyphosate, and available seed supply. The pedigree of plants in the field test is either [(Ro×B73)×B73] or (B73×Ro). Based on these pedigrees, it is expected that half of the plants in a plot would be killed by glyphosate (formulated Roundup®) application, because they would not contain the transgene.
The field test is set up in two blocks, each block containing four groups of plots that would receive a single spray treatment. The treatments are (1) no spray, (2) 32 oz/acre Roundup® at the 1-2 leaf stage, (3) 32 oz/acre Roundup® at the 4-5 leaf stage, and (4) 32 oz/acre Roundup® at the 6-8 leaf stage. Plants are scored for male fertility when they began to flower, and scoring is repeated every 1-2 days for about eight days. Observations included the length of time between emergence of the tassel from the first plants and from the last plant in each plot. A sample of the anthers is collected from each plant, and the viability of pollen is judged with the aid of a hand-held microscope.

[2] = system: non-transgenic parental control plant (M202); assay: Glyphosate treatment of non-transgenic parental control rice; assay type: in vivo; conditions: 64 oz./A glyphosate
Excerpt: The anther-specific promoter P-Ta.1674-19 is amplified from wheat genomic DNA by Genome Walker™ as a HindIII/BglII fragment, digested with these two enzymes, and the fragment ligated into pMON42180 (FIG. 3) digested with the same enzymes, resulting in pMON52000. The plant expression vector pMON52001 (FIG. 27) is constructed by taking the Not I fragment containing of P-Ta. 1674-19/I-Zm.Hsp70/MS2. CP:en/T-AGRTU.nos from pMON52000 and ligating into pMON42916 (FIG. 7) digested with Not I. pMON42438 (FIG. 28) and pMON42439 (FIG. 29) are constructed by replacing the wheat P-Ta. 1674-19 promoter element of pMON52001 with corn anther-specific promoters P-700353038 and P-70053844, respectively. pMON42945 (FIG. 30) is constructed by ligating the Not I fragment consisting of P-L1482830/I-Zm.Hsp70/MS2.CP:en/T-AGRTU.nos into pMON42916. These promoter elements are isolated from wheat and corn anther DNA libraries by Genome Walker™. Rice variety M202 is transformed by Agrobacterium-mediated transformation. […] Vegetative tolerance to the glyphosate is visually evaluated 21 DAT (day after treatment) based on a scale of 0 to 5 (as discussed above). […] Male sterility is scored at maturity by counting the number of empty florets and dividing by the total number of florets (filled plus empty) in each panicle.

How did the “male sterility under field conditions” value [1] turn out when O=C(O)CNCP(=O)(O)O [glyphosate, N-phosphonomethylglycine] was run?
The value was “very effective for producing male sterility”.

What about the “effect of the glyphosate treatment on the non-transgenic parental control plant” value [2] of the same compound?
The value was “killed”.
